{"source": "patent US20180085452A1", "about": "“MATRIX-EMBEDDED TOLERANCE-PROMOTING ADJUVANTS FOR SUBCUTANEOUS IMMUNOTHERAPY” (Tolerogenics S.a.r.l,, priority 2016, published 2018)", "key": {"[1]": {"details": "rodents; cited from earlier work"}, "[2]": {"details": "cited from earlier work"}, "[3]": {"details": "cited from earlier work", "remark": "listed apart in the source"}, "[4]": {"system": "phagocytes", "details": "approximately a threefold increase; cited from earlier work"}, "[5]": {"details": "during the first 24 hours; EP14075015.9; cited from earlier work"}, "[6]": {"system": "type 1 diabetes", "details": "cited from earlier work"}, "[7]": {"system": "TNFR1-mediated activation of NF-κB", "details": "cited from earlier work"}, "[8]": {"system": "experimental autoimmune encephalomyelitis (EAE)", "details": "i.p. 5 μg/kg body weight every 2 days; cited from earlier work"}, "[9]": {"system": "mice", "details": "cited from earlier work"}, "[10]": {"details": "cited from earlier work", "remark": "listed apart in the source"}, "[11]": {"experiment": "in vitro release of DexP from PLGA-PEG-PLGA hydrogel", "type": "physicochemical", "details": "37° C., PBS", "method": "A 20 mM stock solution of DexP in PBS (10.3 mg/ml; MW 516.4; Sigma-Aldrich) is diluted 1:40 in PBS (final concentration: 0.5 mM), and 20 μl of the diluted stock solution is combined with 160 μl of 25% gel solution and 20 μl of 10× PBS (final concentration of DexP: 0.05 mM).\nThe mixture of is incubated for 2 minutes at 37° C. to induce gelling and overlayed with 200 μl of 1× PBS. At frequent time points the supernatant is removed by pipetting and stored at 4° C. The removed supernatant is replaced by fresh 200 μl of 1× PBS. Controls of the same concentration of DexP in 1× PBS without gel are incubated and sampled in parallel.\nReleased DexP is determined with a spectrophotometric method (Singh and Verma, 2008). The method involves oxidation of the corticosteroid by iron (III) and subsequent complexation of iron (II) with potassium hexacynoferate (III), forming a bluish green coloured complex with maximum absorbance at 780 nm (Beer's law range: 10-50 μg/ml; molar absorptivity (M^−1cm^−1): for DexP 0.55×10^4)."}, "[12]": {"system": "rheumatoid arthritis", "parameters": "patients going into remission: dose or concentration left out as unconfirmed", "details": "on methotrexate therapy, cited from earlier work"}, "[13]": {"details": "cited from earlier work", "remark": "listed apart in the source"}, "[14]": {"system": "rheumatoid arthritis", "details": "placebo 29.2%, cited from earlier work"}, "[15]": {"system": "patients with RA", "details": "placebo 22.0%, cited from earlier work"}, "[16]": {"system": "calcium metabolism", "details": "in vivo studies in rats; cited from earlier work"}, "[17]": {"details": "cited from earlier work", "remark": "listed apart in the source"}, "[18]": {"system": "rats", "details": "cited from earlier work"}, "[19]": {"details": "cited from earlier work", "remark": "listed apart in the source"}}, "note": "Several values for one entry are separate records, joined by “and”; a condition that tells them apart may be missing. Equal entries are not always repeated. Entries after “also recorded” stand apart in the source; their conditions may differ. Where two headings read alike, the source gives them in different places."}
{"compound": "C=C1CC[C@H](O)C/C1=C/C=C1\\CCC[C@]2(C)[C@@H]([C@H](C)CCCC(C)(C)O)CC[C@@H]12", "note": "[calcidiol, 25-hydroxyvitamin D3]", "values": [{"measurement": "plasma concentrations tolerated with normo-calcemia", "setting": "[1]", "result": "250 to 1000", "unit": "nM"}, {"measurement": "plasma concentration that can produce vitamin D toxicity", "setting": "[2]; Jones (2008)", "result": "above 0.75 μM; also recorded: approx. 300 ng/ml"}, {"measurement": "calcidiol level at which toxicity occurs", "setting": "[2]; Shephard and DeLuca (1980)", "result": "≥ 500 ng/ml and approx. 1.25 μM"}]}
{"compound": "C[C@@H]1CCN(C(=O)CC#N)C[C@@H]1N(C)c1ncnc2[nH]ccc12", "note": "[free base of tofacitinib, tofacitinib]", "values": [{"measurement": "solubility in DMSO", "setting": "[3]; DMSO", "result": 100, "unit": "mg/mL"}, {"measurement": "solubility in ethanol", "setting": "[3]", "result": 100, "unit": "mg/mL"}, {"measurement": "maximum solubility in plain water", "setting": "[3]; plain water, estimated", "result": "10-20 μM and 3.12-6.24 μg/ml"}]}
{"compound": "O=c1ccn([C@@H]2O[C@H](COP(=O)(O)OP(=O)(O)OP(=O)(O)O)[C@@H](O)[C@H]2O)c(=O)[nH]1", "note": "[UTP]", "values": [{"measurement": "concentration effecting maximal migration of phagocytes", "setting": "[4]", "result": "about 100 nM"}, {"measurement": "released from the hydrogel", "setting": "[5]", "result": "approx. 60%"}]}
{"compound": "vitamin D", "values": [{"measurement": "relative risk of type 1 diabetes over the subsequent 30 years", "setting": "[6]; doses of exactly 50 μg/day", "result": 0.22}, {"measurement": "relative risk of type 1 diabetes over the subsequent 30 years", "setting": "[6]; doses of over 50 μg/day (2000 IU/d) during infancy", "result": 0.14}]}
{"compound": "O=C([O-])c1ccccc1O.[Na+]", "note": "[sodium salicylate]", "values": [{"measurement": "dose required for inhibition of TNFR1-mediated activation of NF-κB", "setting": "[7]", "result": "10 to 20", "unit": "mM"}]}
{"compound": "C=C1/C(=C\\C=C2/CCC[C@]3(C)[C@@H]([C@H](C)CCCC(C)(C)O)CC[C@@H]23)C[C@@H](O)C[C@@H]1O", "note": "[calcitriol, 1α,25-dihydroxyvitamin D3]", "values": [{"measurement": "treated mice in which appearance of paralysis was prevented", "setting": "[8]", "result": 70, "unit": "%"}, {"measurement": "dose that can be administered as a single bolus i.p. injection", "setting": "[9]; in 0.2 ml of normal saline", "result": "up to 500 ng/mouse"}, {"measurement": "dose above which mice can become hypercalcemic on day 2 or day 3", "setting": "[9]; single bolus i.p.", "result": "higher than 750 ng/mouse"}, {"measurement": "solubility in a 1:5 solution of ethanol:PBS", "setting": "[3]; 1:5 ethanol:PBS, pH 7.2", "result": "approx. 0.15 mg/ml"}, {"measurement": "single oral dose relatively well tolerated (only grade 1 to 2 adverse events)", "setting": "[10]", "result": "up to 165 μg"}]}
{"compound": "Nc1ncnc2c1ncn2[C@@H]1O[C@H](COP(=O)(O)OP(=O)(O)OP(=O)(O)O)[C@@H](O)[C@H]1O", "note": "[ATP]", "values": [{"measurement": "concentration effecting maximal migration of phagocytes", "setting": "[4]", "result": "about 100 nM"}, {"measurement": "solubility in ethanol", "setting": "[3]; 25° C.", "result": "less than 1 mg/ml"}, {"measurement": "released from the hydrogel", "setting": "[5]", "result": "approx. 60%"}]}
{"compound": "C[C@@H]1C[C@H]2[C@@H]3CCC4=CC(=O)C=C[C@]4(C)[C@@]3(F)[C@@H](O)C[C@]2(C)[C@@]1(O)C(=O)COP(=O)(O)O", "note": "[DexP, dexamethasone sodium phosphate]", "values": [{"measurement": "hydrogel-embedded DexP released", "setting": "[11]; after 2 days", "result": "80-90%"}, {"measurement": "hydrogel-embedded DexP released", "setting": "[11]; within the first 6 hours", "result": "30-50%"}]}
{"compound": "C=C1/C(=C\\C=C2/CCC[C@]3(C)[C@@H]([C@H](C)CCCC(C)C)CC[C@@H]23)C[C@@H](O)C[C@@H]1O", "note": "[alfacalcidiol]", "values": [{"measurement": "patients with improvement of disease activity", "setting": "[12]; 2 pg/day for 3 months", "result": 89, "unit": "%"}, {"measurement": "patients going into remission", "setting": "[12]; for 3 months", "result": 45, "unit": "%"}]}
{"compound": "C[C@@H]1CCN(C(=O)CC#N)C[C@@H]1N(C)c1ncnc2[nH]ccc12", "note": "[tofacitinib]", "values": [{"measurement": "in vivo half-life", "setting": "[13]", "result": "2 to 3", "unit": "h"}, {"measurement": "ACR20 response rate by week 6", "setting": "[14]; 5 mg twice daily", "result": 70.5, "unit": "%"}, {"measurement": "ACR20 response rate by week 6", "setting": "[14]; 15 mg twice daily", "result": 81.2, "unit": "%"}, {"measurement": "ACR20 response rate by week 6", "setting": "[14]; 30 mg twice daily", "result": 76.8, "unit": "%"}, {"measurement": "ACR20 response at week 12", "setting": "[15]; 3 mg orally twice a day", "result": 39.2, "unit": "%"}, {"measurement": "ACR20 response at week 12", "setting": "[15]; 5 mg orally twice a day", "result": 59.2, "unit": "%"}, {"measurement": "ACR20 response at week 12", "setting": "[15]; 10 mg orally twice a day", "result": 70.5, "unit": "%"}, {"measurement": "ACR20 response at week 12", "setting": "[15]; 15 mg orally twice a day", "result": 71.9, "unit": "%"}]}
{"compound": "C=C1/C(=C\\C=C2/CCC[C@]3(C)[C@@H]([C@H](C)/C=C/[C@@H](O)C4CC4)CC[C@@H]23)C[C@@H](O)C[C@@H]1O", "note": "[calcipotriol]", "values": [{"measurement": "effect on calcium metabolism, times less than calcitriol", "setting": "[16]", "result": "100-200 times"}, {"measurement": "rate of clearance, times higher than for calcitriol", "setting": "[17]; rat, in vivo", "result": "approximately 140 times"}, {"measurement": "half-life in circulation (serum half-life)", "setting": "[17]; rats", "result": 4, "unit": "min"}, {"measurement": "single s.c. dose up to which no death occurred", "setting": "[18]", "result": "≤ 540", "unit": "μg/kg body weight"}, {"measurement": "applied dose absorbed systemically", "setting": "[19]; ointment applied to normal skin", "result": "~5", "unit": "%"}, {"measurement": "applied dose absorbed systemically", "setting": "[19]; ointment applied topically to psoriasis plaques", "result": "approximately 6%"}]}
